# From PubChem BioAssay AID1645865 (Buhrlage Lab, Dana-Farber Cancer Institute and Novartis …, 2021)
# Active and inactive are the calls of the source.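 The calls were made as follows: active = maximal inhibition of the USP30 enzyme reaching 30% or more across the dose series; inactive = the rest.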
# Target: Ubiquitin carboxyl-terminal hydrolase 30 (Homo sapiens) (UniProt Q70CQ3)
# Experiment: inhibitors of ubiquitin-specific protease 30 deubiquitylating enzyme, concentration dependence, in vitro biochemical, validation of primary hits (AID 1645865)
# Settings: purified USP30, Ub-rhodamine cleavage, fluorescence, 2 h
# Chain of Ubiquitin carboxyl-terminal hydrolase 30 (Homo sapiens) (Q70CQ3 whole entry, looked up): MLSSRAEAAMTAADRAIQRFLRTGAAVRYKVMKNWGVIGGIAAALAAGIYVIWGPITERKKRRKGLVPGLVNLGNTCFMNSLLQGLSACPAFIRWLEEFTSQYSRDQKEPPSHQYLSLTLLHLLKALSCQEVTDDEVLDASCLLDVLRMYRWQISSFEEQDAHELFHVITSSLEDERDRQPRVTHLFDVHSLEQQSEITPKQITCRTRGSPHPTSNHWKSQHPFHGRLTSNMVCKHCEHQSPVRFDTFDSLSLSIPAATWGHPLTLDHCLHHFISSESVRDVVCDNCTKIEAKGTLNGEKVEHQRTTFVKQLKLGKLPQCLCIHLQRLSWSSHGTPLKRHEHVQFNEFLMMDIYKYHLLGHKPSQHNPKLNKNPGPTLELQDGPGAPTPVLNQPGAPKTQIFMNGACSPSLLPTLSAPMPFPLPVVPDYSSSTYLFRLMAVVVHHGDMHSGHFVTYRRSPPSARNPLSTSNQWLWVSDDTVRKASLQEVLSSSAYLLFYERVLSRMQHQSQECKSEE
row,IC50,Structure (SMILES)
1,> 50 µM (inactive),COc1cc2c(cc1OC)-c1cc(NCc3cc(OC)c(OC)c(OC)c3)nc(=O)n1CC2
2,6.47 µM,COc1ccccc1-c1nc(-c2cn(-c3ccc(C)cc3)nn2)no1
3,14.1 µM,Oc1ccc(-c2nc3ccc(Cl)cn3c2NC2CCCCC2)cc1
4,> 50 µM (inactive),O=C(c1cscn1)N1CCC2(CC1)CC1(CO2)Nc2ccccc2-n2cccc21 (stereo not given)
5,> 50 µM (inactive),Cc1sc2ncnc(OCc3ccc(F)cc3Cl)c2c1C
6,2.65 µM,COc1ccc(CNC(=O)CCc2nnc3n(Cc4ccccc4Cl)c(=O)c4ccccc4n23)cc1
7,> 50 µM (inactive),CCN1C[C@@H]2C[C@]2(c2ccccc2OC)C(=O)c2ncccc21
8,28 µM,COc1cc(/C=C/C(=O)OCC(=O)Nc2ccc([N+](=O)[O-])cc2OC)ccc1O
9,> 50 µM (inactive),COc1cc2cc3c(c(O)c2c(O)c1-c1c(OC)cc2cc4c(c(O)c2c1O)C(=O)OC1CC(C)OC41)C(=O)OC1CC(C)OC31 (stereo not given)
10,42.8 µM,N#Cc1c(N)nc2c(c1N)C(c1ccccc1)CO2 (stereo not given)
11,> 50 µM (inactive),CCN(CC(=O)Nc1cc(C)on1)c1cccc2ccccc12
12,> 50 µM (inactive),O=C(NCc1ccc(CN2CCCC2)cc1)c1cc2ccccc2[nH]c1=O
13,> 50 µM (inactive),Cc1ccc(Cc2nc(-c3ccc(=O)[nH]c3)no2)cc1
14,23.9 µM,COCCCNC(=O)c1ccc(Cn2c(=O)c3ccccc3n(CC(=O)Nc3ccc(OC)cc3)c2=O)cc1
15,> 50 µM (inactive),Cc1ccc2nc(NC(=O)C3CCCN3S(=O)(=O)c3ccc4c(c3)OCCO4)sc2c1 (stereo not given)
16,31.1 µM,COc1ccc2nc(NC(=O)C(CC(C)C)NS(=O)(=O)c3ccc4c(c3)CCN4C(C)=O)sc2c1 (stereo not given)
17,> 50 µM (inactive),O=C1C/C(=C\c2cccc(Cl)c2)Cc2ccccc21
18,> 50 µM (inactive),O=C(COC(=O)CCc1ccc(S(=O)(=O)N2CCOCC2)cc1)Nc1ccc2c(c1)OCCO2
19,> 50 µM (inactive),COc1ccc(CCNC(=O)c2c(N)n(-c3cccc(Cl)c3)c3nc4ccccc4nc23)cc1
20,0.833 µM,COc1ccc(Cn2cnc3c([nH]c4ccc(Br)cc43)c2=O)cc1
21,> 50 µM (inactive),Cc1cccc(N2CCN(C(=O)c3nnn(-c4ccc(F)cc4)n3)CC2)c1
22,> 50 µM (inactive),COc1ccc(-c2cc3nc([C@@H](C)NC(=O)c4ccc5c(c4)OCO5)nn3cn2)cc1
23,3.37 µM,Cc1ccc(-n2c(=O)[nH]c3c(C(N)=O)nc(-c4cccnc4)nc32)cc1

row,IC50,Structure (SMILES)
1,> 50 µM (inactive),Cn1cc(-c2noc(Cc3cccc(C(F)(F)F)c3)n2)ccc1=O
2,> 50 µM (inactive),O=C(NCc1ccc(F)cc1)C1CCN(c2cnc(N3CCCCC3)nc2)CC1
3,44.8 µM,Cc1ccc2nc(CCc3ccc(NS(=O)(=O)c4cccc(Cl)c4C)cc3)[nH]c2c1
4,> 50 µM (inactive),CC1=C2C(=NCCN1)C(=O)N(c1ccccc1)C2c1cccnc1 (stereo not given)
5,0.654 µM,c1ccc(Cc2nn3c(-c4cccnc4)nnc3c3ccccc23)cc1
6,> 50 µM (inactive),COc1ccc(CCNC(=O)c2cc3ccccc3s2)cc1OC
7,26.3 µM,O=C(COc1ccc2c(c1)CCC2)Nc1ccc2c(c1)CCC2
8,> 50 µM (inactive),O=C(NC(Cc1ccccc1)c1nc2ccccc2[nH]1)c1ccccn1 (stereo not given)
9,17.3 µM,Cc1ccc(Nc2nc(O)c(CC(=O)Nc3ccccc3C)s2)cc1C
10,23.8 µM,Cc1ccccc1NC(=O)c1cc(S(=O)(=O)N2CCCCCC2)ccc1Cl
11,2.85 µM,COc1ccccc1-c1nc2c3c(ncn2n1)Oc1c(c(C)nn1-c1ccccc1)C3c1cccnc1 (stereo not given)
12,4.06 µM,Cc1ccc(NC(=O)Cc2nnc3cc(-c4nc(C)no4)ccn23)cc1
13,17 µM,COc1cccc(N2C(=O)N(CC(=O)NCc3ccc(Cl)cc3)c3ccccc3S2(=O)=O)c1
14,> 50 µM (inactive),Cc1cc(Cl)c2c(c1)[C@]1(C(=O)N2)N2CCC[C@H]2[C@@H](C(=O)c2cc3ccccc3o2)[C@]12C(=O)Nc1ccccc12
15,1.26 µM,Cc1cc(NC(=O)c2cc(-c3cccnc3)n[nH]2)ccc1Br
16,> 50 µM (inactive),CC(C)(C)c1ccc(C(=O)Nc2ccc(Cn3cncn3)cc2)cc1
17,35.6 µM,COc1ccccc1NC(=O)CNC(=O)c1nn(-c2ccc(OC)c(OC)c2)c(=O)c2ccccc12
18,2.32 µM,COc1cc(NC(=O)Cc2ccccc2)ccc1NC(=O)c1cc2ccccc2o1
19,> 50 µM (inactive),COc1ccc(C(=O)CCN2CCOCC2)cc1[N+](=O)[O-]
20,> 50 µM (inactive),CCn1c(SCc2cccc(C)c2)nnc1-c1cnccn1
21,26.7 µM,COC(=O)COc1ccc(/C=N/NC(=O)c2ccc(CN3CCc4ccccc4C3)cc2)cc1
22,> 50 µM (inactive),NS(=O)(=O)c1ccc(NC(=O)Cn2cnc3cc([N+](=O)[O-])ccc3c2=O)cc1
23,> 50 µM (inactive),Cc1ccc(C)c(-n2c(C)cc(/C=C3/C(=N)N4C(c5ccc(F)cc5)=CSC4=NC3=O)c2C)c1

row,IC50,Structure (SMILES)
1,30.9 µM,CC1CCCCN1CCCNC(=O)c1ccc(N2CCc3ccccc32)s1 (stereo not given)
2,> 50 µM (inactive),CC(c1ccccc1)c1nc(-c2ccc(=O)[nH]c2)no1 (stereo not given)
3,> 50 µM (inactive),Cc1ccc(-c2csc(-n3ncc(C(=O)N4CCN(C(=O)Nc5cccc6ccccc56)C(C)C4)c3C(C)C)n2)cc1 (stereo not given)
4,> 50 µM (inactive),O=S1(=O)CCN(CC2CCCO2)c2c(Oc3ccccc3)nc(F)c(Cl)c21 (stereo not given)
5,18 µM,CNS(=O)(=O)c1ccc(CNC(=O)c2cc(-c3ccc(C)cc3)no2)cc1
6,4.4 µM,CCc1ccc(NC(=O)COC(=O)c2n[nH]c3ccccc23)cc1
7,36.3 µM,COc1ccc(-c2nc(CNC(=O)COc3ccc(C)cc3)cs2)cc1
8,> 50 µM (inactive),Cc1nc(-c2cccc(NC(=O)c3ccccc3Cl)c2)no1
9,35.4 µM,O=C(CCCn1c(=O)[nH]c2cc(Cl)ccc2c1=O)N1CCc2ccccc2C1
10,> 50 µM (inactive),O=C(OCCCN1C(=O)c2cccc3c(N4CCCCC4)ccc(c23)C1=O)c1ccccn1
11,16.7 µM,O=c1oc2ccccc2c2nn(-c3ccccn3)cc12
12,> 50 µM (inactive),COC(=O)c1ccc(Cn2cnc3ccc(F)cc3c2=O)o1
13,1.34 µM,COc1cc(Cl)c(C)cc1NC(=O)Cn1c(=O)n(CC(=O)NCc2ccco2)c(=O)c2ccccc21
14,17.9 µM,CCOC(=O)c1c(C)nc2n(Cc3ccccc3)c3ccccc3n12
15,> 50 µM (inactive),Cc1ccc2c(c1)[C@]1(C(=O)N2)[C@@H]2C(=O)N(c3cccc(C(F)(F)F)c3)C(=O)[C@@H]2C2CCCN21 (stereo not given in full)
16,13.8 µM,CCCC1Cc2c(sc3nc(SCC)nc(N)c23)CO1 (stereo not given)
17,25.9 µM,COc1ccc(-n2ccn3c(CCC(=O)NCc4ccc(F)cc4)nnc3c2=O)cc1
18,> 50 µM (inactive),O=S1(=O)CCN(Cc2c(F)cccc2F)c2c(F)nc(N3CCOCC3)c(F)c21
19,2.28 µM,CC(C)(C)C(=O)Nc1ccc(C(=O)Nc2cccc(-c3nnc(-c4ccccc4)o3)c2)cc1
20,21.9 µM,CSc1ncc(C(=O)NC(C)c2ccccc2)c(-c2ccccc2)n1 (stereo not given)
21,23.6 µM,Cc1cc(NCC2CC2)n2nc(Nc3cc(Cl)ccc3C)nc2n1
22,> 50 µM (inactive),NS(=O)(=O)c1cccc(NS(=O)(=O)c2ccc(/C=C/C(=O)OCC(=O)c3ccc(Br)cc3)cc2)c1
23,> 50 µM (inactive),CCCCN(CC)c1ncnc2c1sc1nc(-c3ccco3)c3c(c12)CC(C)(C)OC3

row,IC50,Structure (SMILES)
1,> 50 µM (inactive),O=C(NCc1ccccc1)c1ccc(-c2ccc(N3CCCC3)nn2)cc1
2,11.8 µM,COc1ccc(-c2cc3c(=O)n(CC(=O)Nc4ccccc4F)ccn3n2)cc1OC
3,> 50 µM (inactive),Cc1cc(=O)c2c(O)oc(O)c3c(O)cc(=O)c1c32
4,> 50 µM (inactive),Cc1ccc(C2c3cccn3CCN2C(=O)Nc2ccccc2)cc1 (stereo not given)
5,31.7 µM,O=C(c1cc(-c2ccc(Cl)cc2)n[nH]1)N1CCN(C(=O)c2ccco2)CC1
6,18.1 µM,CCC(=O)Nc1ccccc1-c1nc2ccccc2n(CC(=O)Nc2cc(OC)ccc2OC)c1=O
7,> 50 µM (inactive),Cc1cc(CSc2ncccc2C(=O)Nc2ccnn2Cc2cccnc2)no1
8,> 50 µM (inactive),O=C(NC1CCCC1)C1CC(=O)N(c2cccc(-c3noc(-c4cccs4)n3)c2)C1 (stereo not given)
9,> 50 µM (inactive),O=C(Nc1cc(F)c2nc(N3CCOCC3)ccc2c1)c1ccc(Br)o1
10,> 50 µM (inactive),CC1Cc2ccccc2N1C(=O)Cn1c(=O)cc(O)c2ccccc21 (stereo not given)
11,> 50 µM (inactive),CCC(C(=O)NCc1ccncc1)N(c1cccc(Cl)c1)S(C)(=O)=O (stereo not given)
12,38.2 µM,COc1ccc(-c2ccnc(-c3ccc(OCc4cccc(F)c4)cc3)n2)cc1
13,> 50 µM (inactive),O=C(C1CCCN(S(=O)(=O)N2CCCCCC2)C1)N1CCN(c2ccccc2)CC1 (stereo not given)
14,> 50 µM (inactive),COC(=O)c1cc2c(ccn2C)n1CC(=O)NC1CC1
15,> 50 µM (inactive),COc1ncccc1CN1CCn2c(Cn3cncn3)cnc2C1C (stereo not given)
16,> 50 µM (inactive),O=C(Nc1cccc(Cl)c1)N1CCC(c2cc(-c3ccco3)n[nH]2)CC1
17,31.9 µM,O=C(CSc1nnnn1-c1ccccc1)Nc1ccccc1
18,22 µM,O=C(Nc1cc(F)ccc1F)c1ccn(COc2ccc(F)c(Cl)c2)n1
19,> 50 µM (inactive),COCC(C)Nc1ncc(-c2cnccn2)c(-c2ccc(C)s2)n1 (stereo not given)
20,> 50 µM (inactive),O=c1c(-c2nc(C3CC3)no2)cccn1Cc1c(F)cccc1Cl
21,> 50 µM (inactive),CC(C)CCn1c(=O)c2ccccc2n2c(CCC(=O)NC3CCCCCC3)nnc12
22,26.6 µM,CCOC(=O)c1nc(Nc2ccc(OC)c(Cl)c2)c2ccccc2n1
23,> 50 µM (inactive),CC(C)Cc1nc2oc3c(N(C)CCO)ncnc3c2c2c1CCC2

row,Structure (SMILES),IC50
1,COc1cccc2c1NC(=O)C21CCN(C(=O)Nc2cccc(C)c2)CC1,16.3 µM
2,CCOC(=O)[C@@H]1[C@@H](c2ccccc2)CN2CCN(C(=O)c3cnccn3)C[C@H]12,> 50 µM (inactive)
3,CC1CC[C@]2(NC1)O[C@H]1C[C@H]3[C@@H]4CC[C@H]5C[C@@H](O[C@@H]6O[C@H](CO)[C@H](O[C@@H]7O[C@H](CO)[C@@H](O)[C@H](O[C@@H]8OC[C@@H](O)[C@H](O)[C@H]8O)[C@H]7O[C@@H]7O[C@H](CO)[C@@H](O)[C@H](O)[C@H]7O)[C@H](O)[C@H]6O)CC[C@]5(C)[C@H]4CC[C@]3(C)[C@H]1[C@@H]2C (stereo not given in full),39.5 µM
